SMILES strings stand for the structures.

Holding throughout (format): functional
For assay [1], the system named is Mus musculus. In words: Compound was evaluated for the percent increase in life span against M5076 sarcoma in mice at a sc dose of 200 mg/kg/day. As to conditions: route subcutaneous.
In assay [2] the test system is Mus musculus. In words: Compound was evaluated for the tumor growth inhibition on day 21 against M5076 sarcoma implanted sc in mice at a dose of 200 mg/kg/day. As to conditions: 504 h, route subcutaneous, read-out: TGI.
For assay [3], the system named is Mus musculus. In words: Compound was evaluated for the body weight change from day 1 to day 12 against M5076 sarcoma in mice at a sc dose of 200 mg/kg/day. The note with it: route subcutaneous.
Assay [4] relates to Mus musculus. In words: Compound was evaluated for the percent increase in life span against M5076 sarcoma in mice at a sc dose of 100 mg/kg/day. As to conditions: route subcutaneous.
Assay [5] has as its system Mus musculus. In words: Compound was evaluated for the percent increase in life span against M5076 sarcoma in mice at a sc dose of 300 mg/kg/day. As to conditions: route subcutaneous.
Assay [6] concerns Mus musculus. In words: Compound was evaluated for the body weight change from day 1 to day 12 against M5076 sarcoma in mice at a sc dose of 300 mg/kg/day: toxic. The note with it: route subcutaneous.
Assay [7] deals with Mus musculus. In words: Compound was evaluated for the tumor growth inhibition on day 21 against M5076 sarcoma implanted sc in mice at a dose of 100 mg/kg/day. As to conditions: 504 h, route subcutaneous, read-out: TGI.
Assay [8] relates to Mus musculus. In words: Compound was evaluated for the body weight change from day 1 to day 12 against M5076 sarcoma in mice at a sc dose of 100 mg/kg/day. The note with it: route subcutaneous.
Assay [9] concerns Mus musculus. In words: Compound was evaluated for the body weight change from day 1 to day 12 against M5076 sarcoma in mice at a sc dose of 300 mg/kg/day. The note with it: route subcutaneous.
The subject of assay [10] is Mus musculus. In words: Compound was evaluated for the tumor growth inhibition on day 21 against M5076 sarcoma implanted sc in mice at a dose of 300 mg/kg/day. The note with it: 504 h, route subcutaneous, read-out: TGI.
Assay [11] concerns Mus musculus. In words: Compound was evaluated for the body weight change from day 1 to day 12 against M5076 sarcoma in mice at a sc dose of 25 mg/kg/day. As to conditions: route subcutaneous.
Assay [12] concerns Mus musculus. In words: Compound was evaluated for the body weight change from day 1 to day 12 against M5076 sarcoma in mice at a sc dose of 50 mg/kg/day. As to conditions: route subcutaneous.
For assay [13], the system named is Mus musculus. In words: Compound was evaluated for the tumor growth inhibition on day 21 against M5076 sarcoma implanted sc in mice at a dose of 50 mg/kg/day. The note with it: 504 h, route subcutaneous, read-out: TGI.
Assay [14] has as its system Mus musculus. In words: Compound was evaluated for the tumor growth inhibition on day 21 against M5076 sarcoma implanted sc in mice at a dose of 25 mg/kg/day. The note with it: 504 h, route subcutaneous, read-out: TGI.
Assay [15] concerns Mus musculus. In words: Compound was evaluated for the percent increase in life span against M5076 sarcoma in mice at a sc dose of 50 mg/kg/day. The note with it: route subcutaneous.
Assay [16] relates to Mus musculus. In words: Compound was evaluated for the percent increase in life span against M5076 sarcoma in mice at a sc dose of 25 mg/kg/day. The note with it: route subcutaneous.

For the compound `CCCCCCCCCCCCCC(=O)OCC(COP(=O)([O-])OC[C@H]1O[C@@H](n2ccc(N)nc2=O)[C@@H](C#N)[C@@H]1O)OC(=O)CCCCCCCCCCCCC.[Na+]` (stereo not given in full), the ILS at 200 mg/kg/day in assay [1] turned out to be 22%. The inhibition in vivo at 200 mg/kg/day in assay [2] was 97%. The Weight change was determined as 0.3 g in assay [3], 1 g in [6] and 0.8 g in assay [8]. The ILS at 100 mg/kg/day in assay [4] was 4%. The ILS at 300 mg/kg/day in assay [5] was determined as 0%. In [7], the inhibition in vivo at 100 mg/kg/day is 80%.
For `CCCCCCCCCCCCCCCC(=O)OCC(COP(=O)([O-])OC[C@H]1O[C@@H](n2ccc(N)nc2=O)[C@@H](C#N)[C@@H]1O)OC(=O)CCCCCCCCCCCCCCC.[Na+]` (stereo not given in full), the Weight change in [9] was determined as 1 g; in assay [3], 0 g; in assay [8], 0.9 g. Further, in assay [1], the ILS at 200 mg/kg/day was determined as 38%. Besides, the inhibition in vivo at 200 mg/kg/day in [2] worked out at 98%. Besides, the ILS at 100 mg/kg/day in [4] is 21%. Further, the ILS at 300 mg/kg/day in [5] worked out at 40%. Besides, in [10], the inhibition in vivo at 300 mg/kg/day came to 100%. In addition, the inhibition in vivo at 100 mg/kg/day in [7] came to 93%.
For `CCCCCCCC/C=C\CCCCCCCC(=O)OCC(COP(=O)([O-])OC[C@H]1O[C@@H](n2ccc(N)nc2=O)[C@@H](C#N)[C@@H]1O)OC(=O)CCCCCCC/C=C\CCCCCCCC.[Na+]` (stereo not given in full), the Weight change was 1.6 g in assay [11]; 0.8 g in assay [12]; 3 g in assay [9]; 2 g in [3]; 0.6 g in [8]. For the same compound, the inhibition in vivo at 50 mg/kg/day in assay [13] amounted to 92%. Besides, the inhibition in vivo at 25 mg/kg/day in assay [14] is 69%. In addition, the ILS at 200 mg/kg/day in assay [1] is -12%. Moreover, the ILS at 100 mg/kg/day in assay [4] turned out to be 13%. For the same compound, the ILS at 300 mg/kg/day in [5] is -58%. Further, in assay [15], the ILS at 50 mg/kg/day was determined as 7%. In addition, the inhibition in vivo at 100 mg/kg/day in assay [7] is 98%. For the same compound, the ILS at 25 mg/kg/day in assay [16] is -3%.
For the compound `CCCCC/C=C\C/C=C\CCCCCCCC(=O)OCC(COP(=O)([O-])OC[C@H]1O[C@@H](n2ccc(N)nc2=O)[C@@H](C#N)[C@@H]1O)OC(=O)CCCCCCC/C=C\C/C=C\CCCCC.[Na+]` (stereo not given in full), the Weight change is on record as 1 g in assay [9], 1 g in [3] and -0.3 g in assay [8]. Further, the ILS at 200 mg/kg/day in assay [1] was 10%. Besides, the ILS at 100 mg/kg/day in [4] was 15%. Besides, the ILS at 300 mg/kg/day in assay [5] came out at 15%. For the same compound, the inhibition in vivo at 100 mg/kg/day in [7] is 93%.
On to `CCCCCCCCCCCCCCCCCC(=O)OCC(COP(=O)([O-])OC[C@H]1O[C@@H](n2ccc(N)nc2=O)[C@@H](C#N)[C@@H]1O)OC(=O)CCCCCCCCCCCCCCCCC.[Na+]` (stereo not given in full), for which the Weight change in assay [9] is given as -0.3 g; in [3] it was -0.2 g; in [8], 1.2 g. The ILS at 200 mg/kg/day in assay [1] was 49%. Further, the inhibition in vivo at 200 mg/kg/day in assay [2] was 97%. Further, in assay [4], the ILS at 100 mg/kg/day is 20%. Further, in assay [5], the ILS at 300 mg/kg/day turned out to be 60%. Also, in assay [10], the inhibition in vivo at 300 mg/kg/day came to 98%. For the same compound, the inhibition in vivo at 100 mg/kg/day in assay [7] was 88%.
With `N#C[C@H]1[C@H](O)[C@@H](CO)O[C@H]1n1ccc(N)nc1=O` [TAS-109], the results for the Weight change in [9], in assay [3] and in [8] were 1 g, 1.2 g and 1.1 g, respectively. The ILS at 200 mg/kg/day in assay [1] is -7%. The inhibition in vivo at 200 mg/kg/day in assay [2] is 47%. Further, the ILS at 100 mg/kg/day in assay [4] is -11%. Further, in assay [5], the ILS at 300 mg/kg/day is 14%. Besides, in assay [10], the inhibition in vivo at 300 mg/kg/day was 67%. The inhibition in vivo at 100 mg/kg/day in assay [7] amounted to 38%.

For the origin of these results see ChEMBL document CHEMBL1129023, “Nucleosides and nucleotides. 150. Enzymatic synthesis of 5-phosphatidyl derivatives of (CNDAC) and their notable antitumor effects in mice1” (1996).
